Measured values reported in patent publication US20050153932A1, “Controlled muscle relaxation” (priority 2003, published 2005).
Read-outs that look alike come from different tables or passages of the source.

Columns and labels:
[1] = tested on: M. adductor pollicis contractions; experiment: Vecuronium-induced block of M. adductor pollicis contractions (TOF stimulation) and effect of Org 25969 in anaesthetised Rhesus monkeys; assay type: in vivo, Rhesus monkey
Protocol: • T1: first twitch: amplitude of the first response to TOF stimulation, expressed as percentage of control T1 (%). • T4/T1 ratio: the ratio of T4 over T1 (within one TOF stimulus) expressed as decimals.
Female Rhesus monkeys were starved overnight and sedated with 10 mg·kg^−1 ketamine i.m., followed by i.v. injection of 25 mg·kg^−1 pentobarbitone sodium and subsequent infusion of 5-10 mg·kg^−1hr^−1. The animals were intubated and ventilated with a mixture of oxygen and nitrous oxide (2:3), using a ventilator. The expired CO2 level was measured using a capnograph. The tidal volume was adjusted to obtain a CO2 level of approximately 4.5%. Oxygen saturation was measured via a probe on the earlobe using a pulse oxymeter. Blood pressure was measured non-invasively with a cuff placed on the tail. The ECG was recorded and heart rate was measured. Rectal temperature was measured and body temperature was kept at 37-38° C. using a heating blanket. The right hand and right arm of the animal were fixed to a frame using surgical tape. The thumb was connected to a force transducer. A pre-load of 200-500 mN was applied. Two needle electrode were placed near the N. ulnaris and the nerve was stimulated with train-of-four pulses (pulse duration: 2 ms, train-frequency: 0.07 Hz). At the end of the experiment, the animals were allowed to recover from anesthesia. Appropriate recovery care was given to all animals. Two groups of monkeys were used to assess the reversal effects of Org 25969 against the neuromuscular blocking agents rocuronium (Esmeron®/Zemuron®) and vecuronium (Norcuron®). In the first group, animals initially received an intravenous bolus injection of a 1×ED90 dose of rocuronium bromide to induce neuromuscular block, followed by spontaneous recovery of the twitches. After complete recovery of the twitches, each group received a second and larger 5×ED90 dose of rocuronium followed by spontaneous recovery in one subgroup, whereas the other subgroup received an intravenous bolus dose of 1150 nmol·kg^−1 Org 25969 as soon as all twitches had disappeared. In the vecuronium groups of animals, the same protocol was used, but rocuronium was replaced by vecuronium. Rocuronium bromide and vecuronium bromide were dissolved in a citric acid/phosphate/mannitol buffer (pH 4.0). Org 25969 was dissolved in saline.

rocuronium-induced block = experiment: Reversal of rocuronium-induced block in several animal models; assay type: in vivo; settings: guinea pigs, cats and monkeys
[2] = Org 25969 with rocuronium; neutral pH and 25° C.; cited from earlier work
[3] = Org 25969 with rapacuronium; compared with rocuronium (about 15.10^6 M^−1); cited from earlier work
[4] = Org 25969 with vecuronium; cited from earlier work
[5] = Org 25969 with pancuronium; cited from earlier work
[6] = tested on: neuromuscular block in a patient; settings: cited from earlier work; for Time to >80% block: value (range)
[7] = 5× ED90 vecuronium + 1150 nmol · kg^−1 Org 25969 i.v.
[8] = 5× ED90 vecuronium in the subgroup given 1150 nmol · kg^−1 Org 25969 once all twitches had disappeared
[9] = rocuronium 0.45 mg.kg−1, n = 50
[10] = rocuronium 0.6 mg.kg−1, n = 142

SMILES: O=C(O)CCSC[C@H]1O[C@@H]2O[C@H]3[C@H](O)[C@@H](O)[C@@H](O[C@H]4[C@H](O)[C@@H](O)[C@@H](O[C@H]5[C@H](O)[C@@H](O)[C@@H](O[C@H]6[C@H](O)[C@@H](O)[C@@H](O[C@H]7[C@H](O)[C@@H](O)[C@@H](O[C@H]8[C@H](O)[C@@H](O)[C@@H](O[C@H]9[C@H](O)[C@@H](O)[C@@H](O[C@H]1[C@H](O)[C@H]2O)O[C@@H]9CSCCC(=O)O)O[C@@H]8CSCCC(=O)O)O[C@@H]7CSCCC(=O)O)O[C@@H]6CSCCC(=O)O)O[C@@H]5CSCCC(=O)O)O[C@@H]4CSCCC(=O)O)O[C@@H]3CSCCC(=O)O [Org 25969, 6-per-deoxy-6-per-(2-carboxyethyl)thio-γ-cyclodextrin]
- effect on recovery from vecuronium-induced block (in words) ([1]; 1150 nmol·kg^−1 Org 25969 i.v. after 5×ED90 vecuronium): initial improvement of the time to 25% and 50% recovery values, but the recovery slowed down
- 0.50-0.90 TOF ratio interval [1, 7]: 24.2 ± 3.9 min
- 25-75% recovery index [1, 7]: 16.1 ± 3.7 min
- time to 25% recovery of T1 [1, 7]: 9.7 ± 1.9 min
- time to 90% recovery of T1 [1, 7]: 35.8 ± 7.1 min
- time to TOF ratio 0.90 [1, 7]: 48.6 ± 8.3 min
- block [1, 8]: 100.0 ± 0.0%
- onset time [1, 8]: 1.0 ± 0.2 min
- reversal of rocuronium-induced block (rocuronium-induced block): rapidly reverse rocuronium-induced block
- association constant Ka [2]: about 15.10^6 M^−1
- affinity (association constant) [3]: about the same
- affinity (association constant) [4]: about 9.10^6 M^−1
- affinity (association constant) [5]: about 2.6.10^6 M^−1

SMILES: C=CC[N+]1([C@H]2C[C@H]3[C@@H]4CC[C@H]5C[C@H](O)[C@@H](N6CCOCC6)C[C@]5(C)[C@H]4CC[C@]3(C)[C@H]2OC(C)=O)CCCC1 [rocuronium, rocuronium bromide]
- ED95 ([6]; neuromuscular block, clinical use): 0.30 mg/kg
- Clinical duration (time until return to 25% of control T1) [6, 9]: 22 min
- Time to maximum block [6, 9]: 3.0 min
- Time to >80% block [6, 9]: 1.3 (0.8-6.2) min
- Clinical duration (time until return to 25% of control T1) [6, 10]: 31 min
- Time to maximum block [6, 10]: 1.8 min
- Time to >80% block [6, 10]: 1.0 (0.4-6.0) min
- Clinical duration (time until return to 25% of control T1) ([6]; rocuronium 0.9 mg.kg−1, n = 20): 58 min
- Time to maximum block ([6]; rocuronium 0.9 mg.kg−1, n = 20): 1.4 min
- Time to >80% block ([6]; rocuronium 0.9 mg.kg−1, n = 20): 1.1 (0.3-3.8) min
- Clinical duration (time until return to 25% of control T1) ([6]; rocuronium 1.2 mg.kg−1, n = 18): 67 min
- Time to maximum block ([6]; rocuronium 1.2 mg.kg−1, n = 18): 1.0 min
- Time to >80% block ([6]; rocuronium 1.2 mg.kg−1, n = 18): 0.7 (0.4-1.7) min
